Source: PMC10740580, “Benzothiazole-Phthalimide Hybrids as Anti-Breast Cancer and Antimicrobial Agents” (Antibiotics, 2023)

System: MDA-MB-231 cells
Test: Wound-healing assay (cell migration)
Format: cell-based, human
Details: 3h at its IC50 value
Experimental: Thus, its ability to prevent the migration of MDA-MB-231 was tested by means of the wound-healing assay. Confluent monolayers of cells were cultivated and plated before being scraped to create a wound (see Experimental Section) and treated with compound 3h at concentrations corresponding to its IC50 value (Table 2) for 24 and 48 h, or DMSO (Ctrl). These distinct endpoint times were experimentally defined since MDA-MB-231 cells have a high growth rate and frequently give rise to metastases in vivo. In fact, 48 h were sufficient for the wound closure in the control cells, treated using only the vehicle.
Confluent monolayers of MDA-MB-231 cells formed after the cells were plated on twelve-well plates and grown in full media. […] A cell imager microscope (JuLi Smart fluorescence, NanoEnTek Inc., Seoul, Republic of Korea) was used to take the pictures. The percentage of wound closure used to express the cell migration toward the wounds was: wound closure%=[(At0−At∆h)÷[…]]×100% for which At0 is the area of wound measured immediately after scratching and At∆h is the area of wound measured 48 h after scratching. […] The collected images were analyzed with the JuLI^TM smart fluorescent cell viewer (NanoEnTek Inc., Seoul, Republic of Korea).
Figure 3 Wound-healing assay conducted on MDA-MB-231 cells treated with compound 3h or vehicle (Ctrl, DMSO). […] (B): quantitative analysis of wound closure. […]

Q: With `O=C1c2ccccc2C(=O)N1c1nc2ccc(Oc3ccccc3)cc2s1` [3h, 2-[6-Phenoxy-1,3-benzothiazol-2-yl]-1H-isoindole-1,3(2H)-dione] as the compound, how does the “prevention of total wound closure, 24 h” value (24 h) read?
A: ~ 23%

Q: And the “prevention of total wound closure, 48 h” value (48 h)?
A: ~ 26%
